In patent publication US11945813B2, “5-substituted 4-amino-1H-benzo[c][1,2,6]thiadiazine 2,2-dioxides and formulations and uses thereof” (Firmenich Incorporated, priority 2018, dated 2024):

Biological target: T1, T1R2/T1R3 taste receptor (Homo sapiens, UniProt Q8TE23)
T1 sequence (Q8TE23 20-839): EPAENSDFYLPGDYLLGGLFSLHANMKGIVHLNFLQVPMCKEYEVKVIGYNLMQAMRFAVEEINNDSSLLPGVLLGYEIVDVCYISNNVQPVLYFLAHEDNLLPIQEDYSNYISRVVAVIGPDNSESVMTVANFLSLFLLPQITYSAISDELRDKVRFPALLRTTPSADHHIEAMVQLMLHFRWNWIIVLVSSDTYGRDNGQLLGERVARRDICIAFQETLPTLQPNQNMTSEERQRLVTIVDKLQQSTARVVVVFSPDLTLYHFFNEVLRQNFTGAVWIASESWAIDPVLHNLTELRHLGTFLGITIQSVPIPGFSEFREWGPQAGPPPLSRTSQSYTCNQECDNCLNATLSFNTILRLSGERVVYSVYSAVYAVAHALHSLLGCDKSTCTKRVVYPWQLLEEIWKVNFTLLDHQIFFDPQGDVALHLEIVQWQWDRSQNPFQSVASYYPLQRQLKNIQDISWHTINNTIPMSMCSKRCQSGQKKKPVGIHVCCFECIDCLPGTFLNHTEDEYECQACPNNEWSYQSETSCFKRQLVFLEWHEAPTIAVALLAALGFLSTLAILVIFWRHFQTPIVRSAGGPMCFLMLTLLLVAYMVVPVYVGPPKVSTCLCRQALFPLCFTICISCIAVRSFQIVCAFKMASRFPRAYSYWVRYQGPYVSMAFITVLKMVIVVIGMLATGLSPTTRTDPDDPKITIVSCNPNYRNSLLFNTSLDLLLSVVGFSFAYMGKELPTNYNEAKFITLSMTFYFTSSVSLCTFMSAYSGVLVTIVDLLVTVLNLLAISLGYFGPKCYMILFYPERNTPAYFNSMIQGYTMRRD
T1 sequence (Q7RTX0 21-852 partner): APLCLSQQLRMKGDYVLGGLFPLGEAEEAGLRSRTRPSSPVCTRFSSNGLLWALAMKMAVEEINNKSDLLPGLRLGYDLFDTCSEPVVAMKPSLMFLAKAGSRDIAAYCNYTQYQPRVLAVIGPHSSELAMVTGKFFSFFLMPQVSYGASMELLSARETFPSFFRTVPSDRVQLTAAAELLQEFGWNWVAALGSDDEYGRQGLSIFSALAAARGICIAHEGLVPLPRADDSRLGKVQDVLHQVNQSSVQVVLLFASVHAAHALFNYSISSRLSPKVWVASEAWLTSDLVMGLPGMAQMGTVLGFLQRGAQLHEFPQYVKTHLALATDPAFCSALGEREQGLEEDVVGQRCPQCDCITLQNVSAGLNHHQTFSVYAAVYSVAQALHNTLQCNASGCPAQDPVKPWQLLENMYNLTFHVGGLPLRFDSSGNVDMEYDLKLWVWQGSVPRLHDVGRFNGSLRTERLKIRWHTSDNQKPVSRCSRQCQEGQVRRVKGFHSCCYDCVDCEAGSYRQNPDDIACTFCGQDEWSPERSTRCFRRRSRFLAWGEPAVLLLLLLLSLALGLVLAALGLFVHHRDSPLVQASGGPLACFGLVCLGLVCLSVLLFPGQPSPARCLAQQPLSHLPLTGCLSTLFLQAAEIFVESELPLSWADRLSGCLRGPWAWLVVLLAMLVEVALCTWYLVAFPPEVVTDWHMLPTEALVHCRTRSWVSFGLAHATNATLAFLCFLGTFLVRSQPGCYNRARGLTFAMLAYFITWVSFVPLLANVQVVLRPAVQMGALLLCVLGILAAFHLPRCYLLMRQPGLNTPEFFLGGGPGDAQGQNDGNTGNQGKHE
Test: Receptor-based assay: sweetener EC50 alone and with test compound (enhancement ratio)
Assay type: cell-based
Settings: for Fructose Enhancement EC50 Ratio: sweetener fructose; for Sucralose Enhancement EC50 Ratio: sweetener sucralose; for Sucrose Enhancement EC50 Ratio: sweetener sucrose
In short: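 Sucrose, sucralose or fructose EC50 measured on human T1R2/T1R3, alone and with 3, 10 or 50 μM test compound. Enhancement is the EC50 ratio without/with compound, binned A >20, B 10-20, C >1 to <10.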

SMILES | Fructose Enhancement EC50 Ratio (50 μM test compound) | Sucralose Enhancement EC50 Ratio (10 μM test compound) | Sucralose Enhancement EC50 Ratio (50 μM test compound) | Sucrose Enhancement EC50 Ratio (3 μM test compound) | Sucrose Enhancement EC50 Ratio (10 μM test compound) | Sucrose Enhancement EC50 Ratio (50 μM test compound) | Fructose Enhancement EC50 Ratio (10 μM test compound)
CCN(CC)C(=O)c1ccc(N2CCC[C@H](COc3cccc4c3C(N)=NS(=O)(=O)N4)C2)nc1 [Compound 511] | C (A “C” value indicates an enhancement ratio greater than 1 and less than 10) | A (An “A” value indicates an enhancement ratio of greater than 20) | A (An “A” value indicates an enhancement ratio of greater than 20) | C (A “C” value indicates an enhancement ratio greater than 1 and less than 10) | C (A “C” value indicates an enhancement ratio greater than 1 and less than 10) | B (A “B” value indicates an enhancement ratio from 10 to 20) | 
CC(C)NC(=O)c1ccnc(N2CCC[C@H](COc3cccc4c3C(N)=NS(=O)(=O)N4)C2)c1 [Compound 606] | C (A “C” value indicates an enhancement ratio greater than 1 and less than 10) | A (An “A” value indicates an enhancement ratio of greater than 20) | A (An “A” value indicates an enhancement ratio of greater than 20) | C (A “C” value indicates an enhancement ratio greater than 1 and less than 10) | B (A “B” value indicates an enhancement ratio from 10 to 20) | C (A “C” value indicates an enhancement ratio greater than 1 and less than 10) | C (A “C” value indicates an enhancement ratio greater than 1 and less than 10)
NC1=NS(=O)(=O)Nc2cccc(OC[C@H]3CCCN(c4ccc(C(=O)NCC5CC5)cn4)C3)c21 [Compound 516] | C (A “C” value indicates an enhancement ratio greater than 1 and less than 10) | A (An “A” value indicates an enhancement ratio of greater than 20) | A (An “A” value indicates an enhancement ratio of greater than 20) | C (A “C” value indicates an enhancement ratio greater than 1 and less than 10) | C (A “C” value indicates an enhancement ratio greater than 1 and less than 10) | C (A “C” value indicates an enhancement ratio greater than 1 and less than 10) | 
CC(C)CNC(=O)c1ccnc(N2CCC[C@H](COc3cccc4c3C(N)=NS(=O)(=O)N4)C2)c1 [Compound 616] | C (A “C” value indicates an enhancement ratio greater than 1 and less than 10) | A (An “A” value indicates an enhancement ratio of greater than 20) | A (An “A” value indicates an enhancement ratio of greater than 20) | C (A “C” value indicates an enhancement ratio greater than 1 and less than 10) | C (A “C” value indicates an enhancement ratio greater than 1 and less than 10) | C (A “C” value indicates an enhancement ratio greater than 1 and less than 10) | 
NC1=NS(=O)(=O)Nc2cccc(OC[C@H]3CCCN(c4cc(C(=O)NCC5CC5)ccn4)C3)c21 [Compound 617] | C (A “C” value indicates an enhancement ratio greater than 1 and less than 10) | A (An “A” value indicates an enhancement ratio of greater than 20) | A (An “A” value indicates an enhancement ratio of greater than 20) | C (A “C” value indicates an enhancement ratio greater than 1 and less than 10) | C (A “C” value indicates an enhancement ratio greater than 1 and less than 10) | C (A “C” value indicates an enhancement ratio greater than 1 and less than 10) | C (A “C” value indicates an enhancement ratio greater than 1 and less than 10)
CC(C)CNC(=O)c1ccc(N2CCC[C@H](COc3cccc4c3C(N)=NS(=O)(=O)N4)C2)nc1 [Compound 515] | C (A “C” value indicates an enhancement ratio greater than 1 and less than 10) | A (An “A” value indicates an enhancement ratio of greater than 20) | A (An “A” value indicates an enhancement ratio of greater than 20) | C (A “C” value indicates an enhancement ratio greater than 1 and less than 10) | C (A “C” value indicates an enhancement ratio greater than 1 and less than 10) | C (A “C” value indicates an enhancement ratio greater than 1 and less than 10) | C (A “C” value indicates an enhancement ratio greater than 1 and less than 10)
NC1=NS(=O)(=O)Nc2cccc(OC[C@H]3CCCN(c4ccc(C(=O)N5CCCCC5)cn4)C3)c21 [Compound 513] | C (A “C” value indicates an enhancement ratio greater than 1 and less than 10) | A (An “A” value indicates an enhancement ratio of greater than 20) | A (An “A” value indicates an enhancement ratio of greater than 20) | C (A “C” value indicates an enhancement ratio greater than 1 and less than 10) | C (A “C” value indicates an enhancement ratio greater than 1 and less than 10) | C (A “C” value indicates an enhancement ratio greater than 1 and less than 10) | C (A “C” value indicates an enhancement ratio greater than 1 and less than 10)
NC1=NS(=O)(=O)Nc2cccc(OC[C@H]3CCCN(c4cc(C(=O)N5CCCCC5)ccn4)C3)c21 [Compound 613] |  | A (An “A” value indicates an enhancement ratio of greater than 20) | A (An “A” value indicates an enhancement ratio of greater than 20) |  | C (A “C” value indicates an enhancement ratio greater than 1 and less than 10) | C (A “C” value indicates an enhancement ratio greater than 1 and less than 10) | 
CCNC(=O)c1cccc(N2CCC[C@H](COc3cccc4c3C(N)=NS(=O)(=O)N4)C2)n1 [Compound 402] |  | A (An “A” value indicates an enhancement ratio of greater than 20) | A (An “A” value indicates an enhancement ratio of greater than 20) | C (A “C” value indicates an enhancement ratio greater than 1 and less than 10) | C (A “C” value indicates an enhancement ratio greater than 1 and less than 10) | C (A “C” value indicates an enhancement ratio greater than 1 and less than 10) | 
NC1=NS(=O)(=O)Nc2cccc(OC[C@H]3CCCN(c4ccc(C(=O)O)cn4)C3)c21 [Compound 302] | C (A “C” value indicates an enhancement ratio greater than 1 and less than 10) | A (An “A” value indicates an enhancement ratio of greater than 20) | A (An “A” value indicates an enhancement ratio of greater than 20) | C (A “C” value indicates an enhancement ratio greater than 1 and less than 10) | C (A “C” value indicates an enhancement ratio greater than 1 and less than 10) | C (A “C” value indicates an enhancement ratio greater than 1 and less than 10) | C (A “C” value indicates an enhancement ratio greater than 1 and less than 10)
